Test results published in patent publication US20090163476A1, “N-Phenyl Benzamide Derivatives as Sirtuin Modulators” (Sirtris Pharmaceuticals, Inc., priority 2005, published 2009).

Target: T1, SIRT1 (Homo sapiens, UniProt Q96EB6)
T1 sequence (Q96EB6 1-747): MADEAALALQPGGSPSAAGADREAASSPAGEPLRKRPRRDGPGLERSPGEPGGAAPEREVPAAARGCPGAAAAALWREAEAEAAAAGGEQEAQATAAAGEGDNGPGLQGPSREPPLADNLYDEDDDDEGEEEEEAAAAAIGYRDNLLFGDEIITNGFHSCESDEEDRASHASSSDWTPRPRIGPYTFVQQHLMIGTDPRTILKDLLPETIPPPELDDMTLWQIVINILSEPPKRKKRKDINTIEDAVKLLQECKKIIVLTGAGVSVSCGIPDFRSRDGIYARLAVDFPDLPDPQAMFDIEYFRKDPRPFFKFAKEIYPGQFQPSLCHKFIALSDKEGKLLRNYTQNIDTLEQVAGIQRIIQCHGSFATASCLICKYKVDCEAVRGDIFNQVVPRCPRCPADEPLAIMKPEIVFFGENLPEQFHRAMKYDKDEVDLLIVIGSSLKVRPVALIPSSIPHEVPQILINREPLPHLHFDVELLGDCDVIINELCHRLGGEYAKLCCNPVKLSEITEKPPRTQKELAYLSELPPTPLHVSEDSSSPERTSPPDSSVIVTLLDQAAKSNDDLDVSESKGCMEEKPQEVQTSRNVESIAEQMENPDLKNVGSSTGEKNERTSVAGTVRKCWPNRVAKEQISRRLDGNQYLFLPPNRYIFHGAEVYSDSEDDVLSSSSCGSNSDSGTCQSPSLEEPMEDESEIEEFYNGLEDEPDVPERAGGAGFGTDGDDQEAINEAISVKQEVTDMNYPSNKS
Assay: Mass spectrometry based assay of SIRT1 activity
Assay type: biochemical
Design: key to FOLD ACTIVATION MS: A: Fold activation >250%; B: Fold Activation <250%; C: no fold activation
Conditions: for EC50: activation of SIRT1, read-out: ED50 MS
Protocol: The mass spectrometry based assay utilizes a peptide having 20 amino acid residues as follows: […] The sequence of the peptide substrate is based on p53 with several modifications. […] Test compounds may be added to the reaction as described above. […] After the 25 minute incubation with SIRT1, 10 μL of 10% formic acid is added to stop the reaction. Reactions are sealed and frozen for later mass spec analysis. Determination of the mass of the substrate peptide allows for precise determination of the degree of acetylation (i.e. starting material) as compared to deacetylated peptide (product). […] This timepoint is the same as that used for test compounds and, within the linear range, the endpoint represents a change in velocity. For each of the above assays, SIRT1 protein was expressed and purified as follows. The SirT1 gene was cloned into a T7-promoter containing vector and transformed into BL21(DE3). The protein was expressed by induction with 1 mM IPTG as an N-terminal His-tag fusion protein at 18° C. overnight and harvested at 30,000×g. […] The protein was purified over a Ni-NTA column (Amersham) and fractions containing pure protein were pooled, concentrated and run over a sizing column (Sephadex S200 26/60 global). The peak containing soluble protein was collected and run on an Ion-exchange column (MonoQ). […] This protein was concentrated and dialyzed against dialysis buffer (20 mM Tris-HCl, 2 mM TCEP) overnight. The protein was aliquoted and frozen at −80° C. until further use.

Structure (SMILES)	EC50 [µM]	FOLD ACTIVATION MS
O=C(Nc1cccc(-c2nc3ncccc3o2)c1)c1cccc(OC(F)(F)F)c1 [Compound 50]	> 150	
COc1ccc(C(=O)Nc2cccc(-c3nc4ncccc4o3)c2)cc1 [Compound 54]	> 150	
O=C(Nc1cccc(-c2nc3ncccc3o2)c1)c1ccccc1N1CCOCC1 [Compound 109]	< 50	B (Fold Activation <250%)
COc1ccc(C(=O)Nc2cccc(-c3nc4ncccc4o3)c2)cc1Cl [Compound 110]	101 to 150	
CN(C)c1cccc(C(=O)Nc2cccc(-c3nc4cccnc4o3)c2)c1 [Compound 111]	< 50	B (Fold Activation <250%)
COc1ccc(C(=O)Nc2cccc(-c3nc4cccnc4o3)c2)cc1OC [Compound 112]	< 50	B (Fold Activation <250%)
CN(C)c1cccc(C(=O)Nc2cccc(-c3nc4ccncc4s3)c2)c1 [Compound 113]	< 50	B (Fold Activation <250%)
COc1ccc(C(=O)Nc2cccc(-c3nc4ccncc4s3)c2)cc1OC [Compound 114]	< 50	A (Fold activation >250%)
COc1cc(C(=O)Nc2cccc(-c3nc4ccncc4s3)c2)cc(OC)c1OC [Compound 115]	< 50	A (Fold activation >250%)
COc1ccc(C(=O)Nc2cccc(-c3cnc4ccccc4n3)c2)cc1OC [Compound 116]	101 to 150	
COc1ccc(C(=O)Nc2cccc(-c3nc4cc(C)ccc4[nH]3)c2)cc1OC [Compound 117]	< 50	A (Fold activation >250%)
COc1cc(C(=O)Nc2cccc(-c3cn4ccsc4n3)c2)cc(OC)c1OC [Compound 118]	< 50	A (Fold activation >250%)
COc1cccc(OC)c1C(=O)Nc1cccc(-c2nc3ccccc3o2)c1 [Compound 119]	< 50	B (Fold Activation <250%)
COc1cccc(C(=O)Nc2cccc(-c3nc4cc(Cl)cc(Cl)c4o3)c2)c1 [Compound 121]	> 150	C
COc1ccc(C(=O)Nc2cccc(-c3nc4cc(C(C)C)ccc4o3)c2)cc1OC [Compound 122]	101 to 150	
COc1ccc(C(=O)Nc2cccc(-c3nc4ccccc4s3)c2)c(OC)c1 [Compound 124]	< 50	B (Fold Activation <250%)

Structure (SMILES)	EC50 [µM]	FOLD ACTIVATION MS
COc1cc(C(=O)Nc2cccc(-c3nc4ccccc4c(=O)o3)c2)cc(OC)c1OC [Compound 125]	51 to 100	B (Fold Activation <250%)
COc1cccc(OC)c1C(=O)Nc1cccc(-c2nc3ccccc3[nH]2)c1 [Compound 126]	< 50	B (Fold Activation <250%)
COc1cc(C(=O)Nc2cccc(-c3nc4ccc(C)cc4o3)c2)cc(OC)c1OC [Compound 127]	< 50	A (Fold activation >250%)
COc1ccc(C(=O)Nc2cccc(-c3cn4ccc(C)cc4n3)c2)c(OC)c1 [Compound 128]	< 50	B (Fold Activation <250%)
COc1cc(C(=O)Nc2cccc(-c3cn4ccc(C)cc4n3)c2)cc(OC)c1OC [Compound 129]	< 50	A (Fold activation >250%)
COc1ccc(C(=O)Nc2cccc(-c3cn4ccc(C)cc4n3)c2)cc1 [Compound 130]	< 50	B (Fold Activation <250%)
COc1cc(C(=O)Nc2cccc(-c3cn4cccc(C)c4n3)c2)cc(OC)c1OC [Compound 131]	< 50	A (Fold activation >250%)
COc1ccccc1C(=O)Nc1cccc(-c2cn3ccsc3n2)c1 [Compound 132]	< 50	A (Fold activation >250%)
COC(=O)c1cc(NC(=O)c2cc(OC)c(OC)c(OC)c2)cc(-c2nc3ccncc3s2)c1 [Compound 133, methyl 3-(thiazolo[5,4-c]pyridin-2-yl)-5-(3,4,5-trimethoxybenzamido)benzoate]	< 50	B (Fold Activation <250%)
COc1cc(C(=O)Nc2cc(C(=O)O)cc(-c3nc4ccncc4s3)c2)cc(OC)c1OC [Compound 134, 3-(thiazolo[5,4-c]pyridin-2-yl)-5-(3,4,5-trimethoxybenzamido)benzoic acid]	< 50	B (Fold Activation <250%)
COc1cc(C(=O)Nc2cc(CO)cc(-c3nc4ccncc4s3)c2)cc(OC)c1OC [Compound 135]	< 50	B (Fold Activation <250%)
COc1ccc(C(=O)Nc2cc(C(=O)O)cc(-c3nc4ncccc4o3)c2)cc1OC [Compound 137]	> 150	
CN(C)c1cccc(C(=O)Nc2cc(C(=O)N3CCNCC3)cc(-c3nc4ncccc4o3)c2)c1 [Compound 138]	< 50	B (Fold Activation <250%)
COc1ccc(C(=O)Nc2cc(C(=O)N3CCNCC3)cc(-c3nc4ncccc4o3)c2)c(OC)c1 [Compound 139]	< 50	B (Fold Activation <250%)
COc1ccc(C(=O)Nc2cc(C(=O)N3CCNCC3)cc(-c3nc4ncccc4o3)c2)cc1OC [Compound 164]	< 50	B (Fold Activation <250%)
